Test results published in patent publication US8232070B2, “DNP63A gene and screening methods of anticancer agent by using it” (Seoul National University Industry Foundation, priority 2007, dated 2012).
Peptide text beside a SMILES is read from it. * marks the point of attachment. Cbz = O=C(OCc1ccccc1)*

What was measured:
ΔNp63α [1] = test: ΔNp63α protein amount and stability in ME180 carcinoma cells after TNF-α treatment (cyclohexamide chase, FIG. 1); format: cell-based
Description: After TNF-α treatment for 16 hours, cyclohexamide which inhibit protein synthesis was added and the samples were obtained at the indicated time-points and observed for changes of protein stability. As a result, the protein degradation began after 4 hours of treatment with cyclohexamide.
Previously, ME180, ΔNp63α overexpressing carcinoma, was treated with TNF-α (tumor necrosis factor-alpha) which induces cell death. Also, the changes of the amount of ΔNp63α protein were observed. […] It is identified that such degradation of ΔNp63α was proceeded by specific mechanism, that is, by proteasome-mediated mechanism (FIG. 1). Protein degradation pathways could be usually classified in large into two groups, the first one is a degradation pathway by a protease after its polyubiquitination and movement to proteases, and the other one is a degradation pathway by a caspases.

ΔNp63α [2] = test: Intracellular location of GFP-fused ΔNp63α in transformed ME180 cells, fluorescence microscopy (FIG. 2); format: cell-based; settings: ME180 transformed with pEGFP-ΔNp63α
Source text: The recombinant vector constructed by the present inventor had fused ΔNp63α next to pEGFP-C1. The advantage of GFP is to observe easily in microscopy because GFP emit the green light at the specific absorbance (Excitation maximum=488 nm; emission maximum=507 nm). […] GFP is inherently expressed all over the area of cell, however, it was identified that GFP expression was observed only in the nucleus after GFP fused with ΔNp63α.
As a signal of cell death induction, the intracellular location and expression patterns of ΔNp63α were observed. In detail, it was observed variation aspect and cell location of ΔNp63α with a time span, 0 hr, 1 hr, 2 hr and 4 hr with fluorescence microscope, after cloning ΔNp63α gene into the vector expressing Green Fluorescence Protein (GFP), expressing for a certain time by transformation into carcinoma cell, treating TNF-α which induce cell death, carcinoma cells being transformed and then the protein being expressed for a certain time. As a result, it was observed similar aspect of aggreasome, which looks like complex of preteasome, because ΔNp63α, which had been known to locate only in nucleus, moved from nucleus to cytoplasm about 2 hr after treatment of TNF-α (FIG. 2). […]

Compound | ΔNp63α protein degradation with proteasome inhibitor co-treatment (ΔNp63α [1]; MG132 20 nM together with cyclohexamide after TNF-α treatment for 16 hours) | amount of ΔNp63α protein after treatment (ΔNp63α [1]; ME180 cells, ΔNp63α overexpressing carcinoma) | time at which ΔNp63α protein degradation began after addition of cyclohexamide (ΔNp63α [1]; TNF-α treatment for 16 hours, then cyclohexamide added) | change of ΔNp63α protein location after treatment (ΔNp63α [2]) | time at which ΔNp63α moved from nucleus to cytoplasm after treatment (ΔNp63α [2]; observed at 0 hr, 1 hr, 2 hr and 4 hr)
CC(C)C[C@@H](C=O)NC(=O)[C@H](CC(C)C)NC(=O)[C@H](CC(C)C)NC(=O)OCc1ccccc1 [MG132, reference compound] (Cbz-Leu-Leu-Leu-aldehyde) | wasn't degraded and stabilized even after 4 hours |  |  |  | 
TNF-α |  | decreased rapidly | 4 h | from the nucleus to the cytoplasm | about 2 hr
